AUC data for 1 compound are collected here from patent publication US20090239828A1, “Adhesive preparation” (priority 2006, published 2009).

Series [1] can be described thus: Oral administration in rat models of osteoporosis. Conditions: in vivo; from the minimum effective dose in oral administration in rat models; read-out: sum of the AUC value of minodronic acid per month that gives a suppressive effect on osteoporosis. How it is done:
The effective blood concentration of the bisphosphonic acid derivative for human can be extrapolated from results of various clinical tests, animal experiments, etc. For example, when minodronic acid hydrate was used, the sum of the AUC value of minodronic acid per month that gives a suppressive effect on osteoporosis was about 5 ng·hr/mL or more, from the minimum effective dose in oral administration in rat models of osteoporosis.

Series [2] is described as follows: Clinical test, once daily oral administration to patients with osteoporosis. Conditions: human, in vivo.

Consider `O=P(O)(O)C(O)(Cc1cnc2ccccn12)P(=O)(O)O` [minodronic acid hydrate, 1-hydroxy-2-(imidazo[1,2-a]pyridin-3-yl)ethylidenebisphosphonic acid], for which the AUC in series [1] was at least 5 ng·h/mL; in series [2] it was at least 1 ng·h/mL.
